# Reference: patent US8594947B2, “Crystal structure of an angiotensin-converting enzyme (ACE) and uses thereof” (University of Bath, priority 2002, dated 2013)
# Where two headings read alike, the source gives them in different places.
# B1: tACE-wt: wild-type human testis ACE (SEQ ID NO: 1) retaining its 36-residue N-terminus, transmembrane region and juxtamembrane stalk, expressed in CHO cells (protein, listed as Homo sapiens)
# chain: SQQVTVTHGTSSQATTSSQTTTHQATAHQTSAQSPNLVTDEAEASKFVEEYDRTSQVVWNEYAEANWNYNTNITTETSKILLQKNMQIANHTLKYGTQARKFDVNQLQNTTIKRIIKKVQDLERAALPAQELEEYNKILLDMETTYSVATVCHPNGSCLQLEPDLTNVMATSRKYEDLLWAWEGWRDKAGRAILQFYPKYVELINQAARLNGYVDAGDSWRSMYETPSLEQDLERLFQELQPLYLNLHAYVRRALHRHYGAQHINLEGPIPAHLLGNMWAQTWSNIYDLVVPFPSAPSMDTTEAMLKQGWTPRRMFKEADDFFTSLGLLPVPPEFWNKSMLEKPTDGREVVCHASAWDFYNGKDFRIKQCTTVNLEDLVVAHHEMGHIQYFMQYKDLPVALREGANPGFHEAIGDVLALSVSTPKHLHSLNLLSSEGGSDEHDINFLMKMALDKIAFIPFSYLVDQWRWRVFDGSITKENYNQEWWSLRLKYQGLCPPVPRTQGDFDPGAKFHIPSSVPYIRYFVSFIIQFQFHEALCQAAGHTGPLHKCDIYQSKEAGQRLATAMKLGFSRPWPEAMQLITGQPNMSASAMLSYFKPLLDWLRTENELHGEKLGWPQYNWTPNSARSEGPLPDSGRVSFLGLDLDAQQARVGQWLLLFLGIALLVATLGLSQRLFSIRHRSLHRHSHGPQFGSEVELRHS
# Assays:
# tACE glycosylation = assay: Inhibition of tACE glycosylation in presence of tunicamycin (cellular ACE activity, Western blot); type: cell-based; conditions: CHO cells expressing tACE-wt, 5 μg/ml tunicamycin
# Procedure: CHO cells expressing tACE-wt are grown to confluence in 6-well plates and induced overnight in 2% medium in the absence and presence of 5 μg/ml tunicamycin. Fresh medium is added and cells are grown in the absence and presence of 5 μg/ml tunicamycin. At 6, 8, 12, 16, 20 and 24 hours detergent-solubilised cell samples are collected. After separating the proteins on 10% SDS-PAGE they are immunodetected by Western blotting.
# tACE-wt (SEQ ID NO: 1), tACEΔ36, tACEΔ36-g1, -g2, -g3, -g12, -g13, -g23, -g123 and -g1234 are immunodetected by Western blotting of cell lysates and harvested medium from transfected CHO cells. Proteins are separated on 10% SDS-PAGE and transferred to nitrocellulose membrane (Hybond-C, Amersham). The membrane is probed with a polyclonal rabbit anti-human tACE antibody. The membrane is developed using the ECL chemiluminescence kit (Amersham) and visualised on autoradiographic film, as per instructions.
# [1] = cited from earlier work
# tACE [2] = target: T1, tACE (Homo sapiens, UniProt P12821); assay: Kinetic constants for tACE hydrolysis of hippuryl-L-histidyl-L-leucine (Hip-His-Leu); type: biochemical; conditions: cells expressing tACEΔ36NJ treated with the glucosidase I inhibitor
# T1 construct: made in house; host or cells: CHO-K1 cells, stably transfected; soluble enzyme purified from the medium
# Procedure: (§1) Soluble, recombinant tACE (wild-type […], ACEΔ36NJ (SEQ ID NO: 2) and ACE glycosylation mutants), is purified from conditioned media by affinity chromatography on a Sepharose-28-lisinopril affinity resin. The protein is quantitated by amino acid analysis and assayed for activity using the substrate hippuryl-L-histidyl-L-leucine , as described (Ehlers, MRE, Chen, Y—N, Riordan, JF (1991) Proc Natl Acad Sci USA 88, 1009-1013).
# (§2) Assays are performed in 100 mM potassium phosphate pH 8.3 containing 300 mM NaCl. Initial velocities are calculated over a range of Hip-His-Leu concentrations (0.2-5.0 mM) under initial rate conditions and fit to the Michaelis-Menten equation. Km and Vmax values are determined by non-linear regression analysis.
# tACE [3] = assay: as above; type: biochemical, human; conditions: hydrolysis of Hip-His-Leu
# Procedure: as §1, §2
molecule,measurement,setting,value
tunicamycin,"Formation of mature, glycosylated tACE-wt (Western blot)",tACE glycosylation,partially inhibits
same,Cellular tACE-wt activity in treated versus untreated cells,tACE glycosylation; data not shown,approximately three-fold lower
CCOC(=O)[C@H](CCc1ccccc1)N[C@@H](C)C(=O)N1CCC[C@H]1C(=O)O [enalapril],Risk of hospitalization for heart failure,[1]; similar black patients,no such effect
same,Risk of hospitalization for heart failure,[1]; white patients with left ventricular function,significant reduction
"CCCCN1C[C@H](O)[C@@H](O)[C@H](O)[C@H]1CO [NB-DNJ, N-butyldeoxynojirimycin]",Effect of treating the expressing cells on kinetic properties of the expressed enzymes,tACE [2],do not alter the kinetic properties
B1,Km,"tACE [3]; 100 mM potassium phosphate pH 8.3, 300 mM NaCl",2700 µM
same,kcat,tACE [3]; calculated molecular mass of 100 kDa,193 s⁻¹
